Measurements taken from PubChem BioAssay (NCI).
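How tested: cells in 96-well plates exposed to compound for 48 hours at five concentrations. GI50: concentration for 50% inhibition of growth. TGI is the concentration that stops growth completely.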

Legend:
Test in all cases: inhibition of tumour cell growth, NCI panel, 48 h
M14 melanoma = system: M14 melanoma
IGROV1 ovarian = system: IGROV1 ovarian
UACC-62 melanoma = system: UACC-62 melanoma
SR leukemia = system: SR leukemia
SK-MEL-5 melanoma = system: SK-MEL-5 melanoma
A549 NSCLC = system: A549 NSCLC
K-562 leukemia = system: K-562 leukemia
SK-MEL-2 melanoma = system: SK-MEL-2 melanoma
SW-620 colon = system: SW-620 colon
A498 renal = system: A498 renal

SMILES | GI50 (M14 melanoma) | TGI (M14 melanoma) | GI50 (IGROV1 ovarian) | TGI (IGROV1 ovarian) | GI50 (UACC-62 melanoma) | TGI (UACC-62 melanoma) | GI50 (SR leukemia) | TGI (SR leukemia) | GI50 (SK-MEL-5 melanoma) | TGI (SK-MEL-5 melanoma) | GI50 (A549 NSCLC) | TGI (A549 NSCLC) | GI50 (K-562 leukemia) | TGI (K-562 leukemia) | GI50 (SK-MEL-2 melanoma) | TGI (SK-MEL-2 melanoma) | GI50 (SW-620 colon) | TGI (SW-620 colon) | GI50 (A498 renal) | TGI (A498 renal)
NC1CCC(Nc2nc(NCc3ccc(-c4ccco4)nc3)c3ncn(C4CCCC4)c3n2)CC1 (centres undefined) | 0.0213 µM | 0.193 µM | 0.0351 µM | 10.7 µM | 0.0377 µM | 0.223 µM | 0.0349 µM | 0.19 µM | 0.0913 µM | 1.02 µM | 0.0273 µM | 14.4 µM | 0.0417 µM | 1.17 µM | 0.034 µM | 0.145 µM | 0.0117 µM | 11.5 µM | 0.0311 µM | 0.0941 µM
c1cc2c(cc1NC1=NCCO1)CCC2 | – | – | – | > 10 µM | – | > 10 µM | – | > 10 µM | – | > 10 µM | – | > 10 µM | – | > 10 µM | – | > 10 µM | – | > 10 µM | – | –
CNC(=O)c1cc(Oc2ccc3nc(NC(=O)Nc4ccc(Cl)c(C(F)(F)F)c4)sc3c2)ccn1 | – | – | 2.02 µM | 5.12 µM | – | – | 0.412 µM | 9.1 µM | – | – | – | – | – | – | 5.69 µM | 47 µM | 2.99 µM | > 100 µM | 2.49 µM | 12.2 µM
C=CCc1cc(OC)c2c(c1)C(O)CC(c1ccc(OC)c(OC)c1)O2 (centres undefined) | – | > 100 µM | – | > 100 µM | – | > 100 µM | – | > 100 µM | – | > 100 µM | – | > 100 µM | – | > 100 µM | – | > 100 µM | – | > 100 µM | – | –
C=C(CNCCO)[C@@H]1CC[C@]2(CO)CC[C@]3(C)[C@H](CC[C@@H]4[C@@]5(C)CCC(N)C(C)(C)[C@@H]5CC[C@]43C)[C@@H]12 (some centres undefined) | 2.05 µM | 3.97 µM | 6.05 µM | 20.8 µM | 1.8 µM | 3.36 µM | 1.9 µM | 5.22 µM | 1.73 µM | 3.18 µM | 2.41 µM | 6.69 µM | 1.48 µM | 3.33 µM | 1.98 µM | 3.65 µM | 1.89 µM | 3.75 µM | 9.55 µM | 22.6 µM
Cn1ccnc1C(=O)/C=C/c1ccc(CC(=O)Nc2ccc(Br)cc2)cc1 | 2.63 µM | 6.07 µM | 2.97 µM | 10.6 µM | 2.8 µM | 5.73 µM | 0.575 µM | > 16.7 µM | 3.58 µM | 8.25 µM | 4.68 µM | 13.2 µM | 3.88 µM | > 16.7 µM | > 16.7 µM | > 16.7 µM | 4.15 µM | 13.4 µM | 4.35 µM | 12.6 µM
O=C(O)CCSC(=O)Nc1cccc(F)c1 | – | 45.4 µM | – | – | – | – | – | > 100 µM | – | – | – | > 100 µM | – | > 100 µM | – | > 100 µM | – | > 100 µM | – | > 100 µM
O=C1/C(=C/c2ccc([N+](=O)[O-])cc2)COc2ccc(O)c(O)c21 | 1.54 µM | 3.3 µM | 1.25 µM | 3.55 µM | 1.57 µM | 3.35 µM | 0.463 µM | > 100 µM | 2.12 µM | 4.61 µM | 2.04 µM | 5.17 µM | 0.547 µM | > 100 µM | 1.87 µM | 4.37 µM | 1.31 µM | 3.07 µM | 1.71 µM | 3.91 µM
